Laboratory results: paper PMC5708526, “Targeting secondary protein complexes in drug discovery: studying the druggability and chemical biology of the HSP70/BAG1 complex” (Chemical Communications (Cambridge, England), 2017)
Where two headings read alike, the source gives them in different places.

What was measured:
Type in all cases: binding
HSP72 = target: T1, HSP72 (Homo sapiens, UniProt P0DMV8); test: Fluorescence polarisation probe KD determination with full-length HSP72
T1 construct: made in house
T1 sequence (P0DMV8 whole entry): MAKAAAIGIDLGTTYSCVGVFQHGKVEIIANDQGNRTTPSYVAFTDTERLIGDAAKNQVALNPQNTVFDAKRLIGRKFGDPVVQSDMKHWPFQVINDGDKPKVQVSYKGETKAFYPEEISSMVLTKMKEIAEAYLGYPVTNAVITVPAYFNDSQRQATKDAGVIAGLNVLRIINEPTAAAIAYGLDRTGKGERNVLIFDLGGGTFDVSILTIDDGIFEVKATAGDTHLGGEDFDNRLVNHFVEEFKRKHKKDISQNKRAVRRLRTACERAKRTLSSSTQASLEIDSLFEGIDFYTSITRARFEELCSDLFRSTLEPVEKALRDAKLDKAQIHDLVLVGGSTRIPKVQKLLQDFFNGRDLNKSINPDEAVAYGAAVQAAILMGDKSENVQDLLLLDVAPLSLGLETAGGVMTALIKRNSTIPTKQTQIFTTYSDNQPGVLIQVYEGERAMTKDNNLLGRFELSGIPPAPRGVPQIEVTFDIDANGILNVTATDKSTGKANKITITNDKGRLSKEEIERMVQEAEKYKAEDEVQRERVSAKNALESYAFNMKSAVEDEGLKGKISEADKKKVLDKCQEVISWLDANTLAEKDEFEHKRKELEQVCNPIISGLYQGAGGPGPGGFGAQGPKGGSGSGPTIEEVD
Description: (§1) To determine the binding affinity of bisaryl FP-probe 11 for HSP72, increasing concentrations of the protein were titrated against a fixed concentration (10 nM) of the FP-probe. […] We speculated that this decrease in apparent KD was due to the slow hydrolysis of the ATP-probe to ADP-ATTO-488 + Pi. Although HSP72 has low intrinsic ATPase activity,[8] the high enzyme concentration could catalyse hydrolysis over the time-frame of the assay, with the initial KD values reflective of the known modest affinity of ATP for HSP70, whilst the final KD value was consistent with the higher affinity ADP ligand.[14] […]
(§2) TRIS Tris(hydroxymethyl)aminomethane
(§3) General Information: Unless otherwise stated the aqueous assay buffer contained 50 mM TRIS base pH 7.4, 150 mM NaCl, 6 mM MgCl2, 1 mM DTT, 0.1% (wt/wt) CHAPS. The assay was conducted using 384 Plus F ProxiPlates (PerkinElmer) with a final assay volume of 10 μL. Plates were centrifuged at 1000 rpm for 1 minute prior to incubation and read using an 2103 Envision Multilable Plate Reader. Excitation and emission wavelengths used for green probes were 480 nm and 535 nm, respectively.
Fluorescence polarisation was measured in units of millipolarization (mP). All experiments were performed in triplicate, unless otherwise stated. Data were plotted and analysed using GraphPad Prism 6, graphical data represents the mean ± standard error of the mean for a single representative experiment. ATP-derived fluorescent probes (1.0 mM in aqueous) were purchased from Jena Bioscience. Human BAG-1M (10.9 μM in 20 mM TRIS base pH 7.4, 100 mM NaCl, 1 mM DTT, 1% (v/v) glycerol) was purchased from Enzo Life Sciences. […]
Fluorescence polarisation values for the tracer ± protein were plotted using GraphPad prism 6.
Fluorescent probe KD determination: To each well, 5 μL of probe molecule (20 nM in assay buffer) and increasing concentrations of HSP70 protein (5 μL, two-fold dilution series) were added. Fluorescence polarisation values for tracer control wells (10 nM probe in assay buffer only) were subtracted from each data point prior to data analysis. KD determination was performed using non-linear regression analysis (GraphPad Prism 6, one site–specific binding model). […]
BAG-1 titration: To each well, ATP-ATTO488 and HSP70 at two times their final concentration (5 µL in assay buffer) was added and the plate incubated in the dark for 16 hours. Increasing concentrations of BAG1 protein (5 μL, two-fold dilution series in 20 […]
(1 picture or pasted object on this page, not shown here)

TR-HSC70 (aa 4-381) = target: T2, TR-HSC70 (aa 4-381) (Homo sapiens, UniProt P11142); test: Fluorescence polarisation probe KD determination with truncated HSC70
T2 construct: HSC70-NBD (residues 4 to 381); made in house
T2 sequence (P11142 4-381): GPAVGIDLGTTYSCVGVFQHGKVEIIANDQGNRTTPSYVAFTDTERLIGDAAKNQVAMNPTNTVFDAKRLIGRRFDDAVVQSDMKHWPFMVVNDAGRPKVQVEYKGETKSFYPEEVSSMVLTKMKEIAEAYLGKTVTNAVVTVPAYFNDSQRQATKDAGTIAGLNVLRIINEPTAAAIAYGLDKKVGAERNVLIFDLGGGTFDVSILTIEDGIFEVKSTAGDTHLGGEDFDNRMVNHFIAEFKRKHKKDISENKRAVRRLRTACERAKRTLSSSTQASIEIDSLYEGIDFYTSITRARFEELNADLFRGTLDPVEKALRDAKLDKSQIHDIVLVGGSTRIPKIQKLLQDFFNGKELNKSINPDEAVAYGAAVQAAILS
Description: as §1, §2, §3
Fluorescence polarisation was measured in units of millipolarization (mP). […] Data were plotted and analysed using GraphPad Prism 6, graphical data represents the mean ± standard error of the mean for a single representative experiment. […]

BAG1 = target: T3, BAG1 (Homo sapiens, UniProt Q99933); test: FP of probes with BAG1 in the absence of HSP72; settings: 10 nM probe, 1 µM BAG1
T3 construct: purchased Enzo Life Sciences
T3 sequence (Q99933 1-274 isoform Q99933-3): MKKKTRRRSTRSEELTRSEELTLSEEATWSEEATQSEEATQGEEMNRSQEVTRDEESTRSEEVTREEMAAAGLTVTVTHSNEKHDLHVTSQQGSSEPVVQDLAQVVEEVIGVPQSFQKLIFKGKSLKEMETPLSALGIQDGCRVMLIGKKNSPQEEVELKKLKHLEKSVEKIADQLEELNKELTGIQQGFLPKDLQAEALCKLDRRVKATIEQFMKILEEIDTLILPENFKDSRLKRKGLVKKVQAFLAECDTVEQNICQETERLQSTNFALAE
Description: To assess what effect the secondary HSP72/BAG1 complex had on the apparent affinity of the non-nucleotide bisaryl-ATTO-488 FP-probe 11, we carried out a similar BAG1 study. […] To confirm that the binding of BAG1 to HSP72 was not mutually exclusive, we screened the nucleotides ADP and ATP in a competition assay with bisaryl-ATTO-488 11 and HSP72 at a 50% bound fraction, with and without a saturating concentration of BAG1 (700 nM) (Fig. S7, ESI ^†).
Fig. S4. Competitive displacement curve for bisarryl-ATTO-448 and HSP72 with compound 2. IC50 determination was performed using non-linear least squares curve fitting (GraphPad Prism 6, log(inhibitor) vs. response—variable slope (four parameters)), all data points were tested in triplicate and are represented as the arithmetic mean ± SEM. pKD=-log KD (M). pKD values are quoted as the geometric mean±SEM of n independent repeats.
Fig. S5. Bisaryl-ATTO-488 and ATP-ATTO-488 binding to truncated HSP72 and HSC70. Representative binding isotherms for bisaryl-ATTO-488 (blue) and ATP-ATTO-488 (red) binding to TR-HSP72 (aa 3-382) (•) and TR-HSC70 (aa 4-381) (x). KD determination was performed using non-linear regression analysis (one site–specific binding model), all data points were tested in triplicate and are represented as the arithmetic mean ± SEM. pKD=-log KD (M). pKD values are quoted as the geometric mean±SEM of n independent repeats.
Fig. S6. […]

SMILES: CN(CCCC(=O)NCCCCCCNc1ncnc2c1nc(NCc1ccc3ncccc3c1)n2[C@@H]1O[C@H](COCc2ccc(C(F)(F)F)cc2)[C@@H](O)[C@H]1O)C(=O)c1ccccc1-c1c2ccc(=N)c(S(=O)(=O)O)c-2oc2c(S(=O)(=O)O)c(N)ccc12 [compound 11]
- time-dependency of affinity for HSP72 (HSP72): no apparent time-dependency
- pKD (HSP72; 10 nM probe, 0.1% (w/v) CHAPS, n = 4): 6.72 ± 0.04
- Kd (HSP72; 10 nM probe, 0.1% (w/v) CHAPS, read-out: KD): 0.194 µM
- pKD (HSP72; 0.01% (v/v) Triton X-100, n = 3): 6.83
- Kd (HSP72; 0.01% (v/v) Triton X-100, read-out: KD): 0.15 µM
- Kd (HSP72; without BAG1, Fig. S7 isotherm, read-out: KD - BAG1): 0.183 µM
- Kd (TR-HSC70 (aa 4-381); TR-HSC70): 0.117 µM
- pKD (TR-HSC70 (aa 4-381); TR-HSC70, n = 2): 6.93
- interaction with BAG1 in the absence of HSP72 (BAG1): No interaction
- interaction with BAG1 in the absence of HSP72 (BAG1; listed as bisaryl-ATTO-488): does not interact
